# Results reported in US20240148722A1, “SMALL MOLECULES THAT BIND TO TDP-43 FOR THE TREATMENT OF ALS AND RELATED DISORDERS” (Biohaven Therapeutics Ltd., priority 2021, published 2024).
# Assays:
# TDP-43 [1] = target: T1, TDP-43 (Homo sapiens, UniProt Q13148); details: using bt-(TG)6 and not bt-TAR32; Biochimie, 2012, 94, 1974-1981; cited from earlier work
# TDP-43 [2] = target: T1, TDP-43; details: cited from earlier work
# TDP-43 1-260 = TDP-43 1-260 (Homo sapiens, UniProt Q13148); test: TDP-43 alpha-screen assay with bt-TAR32; assay type: binding; details: bt-TAR32 0.125 nM; 3 h at room temperature; read-out: Activity (μM) in the TDP-43-DNA alpha-screen assay
# Sequence of TDP-43 1-260 (Q13148 1-260): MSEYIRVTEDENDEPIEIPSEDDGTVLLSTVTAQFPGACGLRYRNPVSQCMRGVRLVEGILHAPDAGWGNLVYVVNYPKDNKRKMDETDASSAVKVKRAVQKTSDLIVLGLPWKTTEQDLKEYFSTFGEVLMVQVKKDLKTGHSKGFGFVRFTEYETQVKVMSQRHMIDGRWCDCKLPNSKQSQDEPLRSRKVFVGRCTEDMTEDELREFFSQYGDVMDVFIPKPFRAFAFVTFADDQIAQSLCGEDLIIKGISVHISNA
# Experimental: Alpha-screen assay. […] Briefly, assays contained TDP-43 1-260 (15 ng/mL, 0.27 nM), 10 mg/mL of both streptavidin donor beads and anti-GST acceptor beads with various concentrations of bt-TAR32 (˜18 to +14 in the HIV1 LTR) and test compound in a final volume of 20 mL of 25 mM Tris, 0.1% CHAPS, pH 7.4 in white, opaque low volume 384-well plates. After 3 h incubation at room temperature, the AlphaScreen signal was measured using a Synergy 2 plate reader (Biotek, Winooski, VT). […] Nonspecific binding was determined in the presence of 10 mM bt-TDP43 and was less than 10% of total binding. IC50 values were obtained from nonlinear regression fits of the data to a one-site binding model using Graph Pad Prism, version 5.0 (GraphPad Software, San Diego, CA). Comparison of competitive inhibition and mixed type inhibition models were evaluated using the F-test on global fits of the data also in Graph Pad Prism, version 5.0.
# T1 sequence (Q13148 whole entry): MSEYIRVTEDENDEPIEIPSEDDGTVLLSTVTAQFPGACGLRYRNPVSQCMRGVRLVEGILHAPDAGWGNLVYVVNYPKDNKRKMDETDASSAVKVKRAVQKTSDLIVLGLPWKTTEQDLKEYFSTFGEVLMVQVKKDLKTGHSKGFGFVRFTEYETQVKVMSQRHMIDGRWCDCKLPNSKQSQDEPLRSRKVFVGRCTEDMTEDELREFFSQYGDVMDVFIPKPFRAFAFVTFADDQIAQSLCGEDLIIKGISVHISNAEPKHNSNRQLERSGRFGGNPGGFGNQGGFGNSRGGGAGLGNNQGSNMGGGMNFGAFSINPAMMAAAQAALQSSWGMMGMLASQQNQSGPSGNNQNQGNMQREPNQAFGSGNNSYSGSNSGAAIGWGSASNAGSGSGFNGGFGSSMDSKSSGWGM
Compound,IC50 (TDP-43 1-260) [µM],also measured
COc1ccc(-c2cc(NCCCN(C)C)c3ccccc3n2)cc1 [Compound I],–,activity in a TDP-43 alpha-screen (TDP-43 [1]): active; caspase-7 cleavage of TDP-43 (TDP-43 [2]): promoted
COc1ccc(-c2cc(NCCCN(C)C)cc(-c3ccc(C[C@@H](N)C(=O)O)cc3)n2)cc1 [Example 62],1.85,–
"COc1ccc(-c2cc(NCC(F)(F)CN)cc(-c3ccc(N4CCN(C)CC4)cc3)n2)cc1 [Example 63, N-(3-amino-2,2-difluoropropyl)-2-(4-methoxyphenyl)-6-(4-(4-methylpiperazin-1-yl)phenyl)pyridin-4-amine]",1.49,–
COc1ccc(-c2cc(/N=N\C3CCNCC3)cc(-c3ccc(N4CCNCC4)cc3)n2)cc1 [Example 64],1.48,–
COc1ccc(-c2cc(NCCCN3CCC4NCCC43)cc(-c3ccc(N4CCNCC4)cc3)n2)cc1 (stereo not shown) [Example 65],1.32,–
COc1ccc(-c2cc(NCCCOCCCN)cc(-c3ccc(N4CCNCC4)cc3)n2)cc1 [Example 66],1.2,–
COc1ccc(-c2cc(NCC3CCCN(C)C3)cc(-c3ccc(N4CCN(C)CC4)cc3)n2)cc1 (stereo not shown) [Example 67],1.17,–
COc1ccc(-c2cc(NC3CCNCC3F)cc(-c3ccc(N4CCN(C)CC4)cc3)n2)cc1 (stereo not shown) [Example 68],0.89,–
COc1ccc(-c2cc(NCCCN(C)CCCN)cc(-c3ccc(N4CCCCC4)cc3)n2)cc1 [Example 69],0.74,–
COc1ccc(-c2cc(NCCN(C)CCN)cc(-c3ccc(N4CCNCC4)cc3)n2)cc1 [Example 70],0.63,–
"COc1ccc(-c2cc(NCCCN(C)CCCN)cc(CCC3CC3)n2)cc1 [Example 71, N-{3-[(3-aminopropyl)(methyl)amino]propyl}-2-(2-cyclopropylethyl)-6-(4-methoxyphenyl)pyridin-4-amine]",0.57,–
COc1ccc(-c2cc(NCCCN3CCNCC3)cc(-c3ccc(N4CCN(C)CC4)cc3)n2)cc1 [Example 72],0.55,–
"COc1ccc(-c2cc(NCCOCCN)cc(-c3ccc(N4CCNCC4)cc3)n2)cc1 [Example 73, N-(2-(2-aminoethoxy)ethyl)-2-(4-methoxyphenyl)-6-(4-(piperazin-1-yl)phenyl)pyridin-4-amine]",0.49,–
COc1ccc(-c2cc(NCCN3CCNCC3)cc(-c3ccc(N4CCNCC4)cc3)n2)cc1 [Example 74],0.49,–
COc1ccc(-c2cc(N[C@@H]3CCNC[C@@H]3OC)cc(-c3ccc(N4CCN(C)CC4)cc3)n2)cc1 [Example 75],0.36,–
COc1ccc(-c2cc(NCCCN(C)CCCN)cc(-c3ccc(N4CCN(C)C(F)C4)cc3)n2)cc1 (stereo not shown) [Example 76],0.23,–
CN(CCCN)CCCNc1cc(-c2ccc(-c3ccncc3)cc2)nc(-c2ccc(N3CCNCC3)cc2)c1 [Example 77],0.13,–
"COc1ccc(-c2cc(NCCCN(C)CCCN)nc(-c3ccc(N4CCNCC4)cc3)n2)cc1 [Example 78, N-{3-[(3-aminopropyl)(methyl)amino]propyl}-6-(4-methoxyphenyl)-2-[4-(piperazin-1-yl)phenyl]pyrimidin-4-amine]",0.2,–

Compound,IC50 (TDP-43 1-260) [µM],also measured
COc1ccc(-c2cc(NCCCN(C)C)cc(-c3ccc(OCCCN(C)C)cc3)n2)cc1 [Example 80],0.21,–
COc1ccc(-c2cc(NCCCN(C)C)cc(-c3ccc(OCCCN(C)C)nc3)n2)cc1 [Example 81],0.72,–
CN(C)CCCNc1cc(-c2ccc(OCCCN3CCCC3)cc2)nc2ccccc12 [Example 82],0.11,–
COc1cc2c(NCCCN(C)C)ccnc2cc1OCCN1CCCC1 [Example 83],0.19,–
CN(C)CCCNc1cc(-c2ccc(OCCn3cccn3)cc2)nc2ccccc12 [Example 84],0.55,–
"N[C@H]1C[C@H](Nc2cc(-c3ccc(N4CCNCC4)cc3)nc3ccsc23)C1 [Example 85, (1r,3r)-N1-(5-(4-(piperazin-1-yl)phenyl)thieno[3,2-b]pyridin-7-yl)cyclobutane-1,3-diamine]",0.16,–
NCCCNc1cc(-c2ccc(N3CCNCC3)cc2)nc2ccsc12 [Example 86],0.2,–
NCCCNc1n[nH]c2cc(-c3ccc(N4CCNCC4)cc3)ccc12 [Example 87],0.15,–
"COc1ccc(-c2cc(N[C@H]3C[C@H](N)C3)cc(-c3cccc(OCCN4CCCC4)c3)n2)cc1 [Example 88, trans-N1-(2-(3-(2-(pyrrolidin-1-yl)ethoxy)phenyl)-6-(4-methoxyphenyl)pyridin-4-yl)cyclobutane-1,3-diamine]",0.18,–
"COc1ccc(-c2cc(NCCCN(C)C)cc(-c3cccc(OCCCN(C)C)c3)n2)cc1 [Example 89, 2-(3-(3-(dimethylamino)propoxy)phenyl)-N-(3-(dimethylamino)propyl)-6-(4-methoxyphenyl)pyridin-4-amine]",0.17,–
COc1ccc(-c2cc(N[C@H]3CC[C@H](N)CC3)cc(-c3cccc(OCCN4CCCC4)c3)n2)cc1 [Example 90],0.09,–
COc1ccc(-c2cc(NCCCN(C)C)cc(-c3cccc(OCCN4CCCC4)c3)n2)cc1 [Example 91],0.16,–
COc1ccc(-c2cc(NCCCN(C)C)cc(-c3cccc(OCCN(C)C)c3)n2)cc1 [Example 92],0.34,–
"COc1ccc(-c2cc(N[C@H]3CC[C@H](N)CC3)cc(-c3cccc(OCCN(C)C)c3)n2)cc1 [Example 93, trans-N1-(2-(3-(2-(dimethylamino)ethoxy)phenyl)-6-(4-methoxyphenyl)pyridin-4-yl)cyclohexane-1,4-diamine]",0.11,–
"COc1ccc(-c2cc(N[C@H]3C[C@H](N)C3)cc(-c3ccc(CN(C)CCN(C)C)o3)n2)cc1 [Example 96, N1-{2-[5-({[2-(dimethylamino)ethyl](methyl)amino}methyl)furan-2-yl]-6-(4-methoxyphenyl)pyridin-4-yl}cyclobutane-1,3-diamine]",2.4,–
"Cis-N1-(2-(3-(2-(pyrrolidin-1-yl)ethoxy)phenyl)-6-(4-methoxyphenyl)pyridin-4-yl)cyclobutane-1,3-diamine [Example 94]",0.49,–
Ethyl 4-(2-(4-methoxyphenyl)-6-(4-(piperazin-1-yl)phenyl)pyridin-4-ylamino)piperidine-1-carboxylate [Example 49],5.78,–
"N^1-(4-(4-methoxyphenyl)-6-(4-(piperazin-1-yl)phenyl)pyridin-2-yl)-N^3,N^3-dimethylpropane-1,3-diamine [Example 79]",1.09,–
